Reference: patent publication US9951065B2 (Gilead Sciences, Inc., priority 2015, dated 2018)

Target: T1, IDO1 (Homo sapiens, UniProt P14902)
T1 construct: HeLa cells were treated with a test compound in the presence of IFNγ, which induces IDO1 expression; host or cells: H1-HeLa cells, IDO1 induced with IFNγ
Assay: Cell-based (HeLa) assay for measurement of IDO1 inhibition (kynurenine levels in supernatant after IFNγ induction)
Details: HeLa cells, IFNγ-induced IDO1, kynurenine in supernatant after 48 hour incubation; geometric mean of a minimum of four determinations
Procedure, shortened: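 IDO1 activity is read as kynurenine released into the medium, detected with Ehrlich's reagent (p-dimethylaminobenzaldehyde) at 480 nm after TCA treatment. HeLa cells were exposed 48 h to compounds in 0.5% DMSO alongside IFNγ induction. Values normalized to no-IFNγ and IFNγ controls; four-parameter EC50 given as geometric mean of ≥4 determinations.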

T1 sequence (P14902 whole entry): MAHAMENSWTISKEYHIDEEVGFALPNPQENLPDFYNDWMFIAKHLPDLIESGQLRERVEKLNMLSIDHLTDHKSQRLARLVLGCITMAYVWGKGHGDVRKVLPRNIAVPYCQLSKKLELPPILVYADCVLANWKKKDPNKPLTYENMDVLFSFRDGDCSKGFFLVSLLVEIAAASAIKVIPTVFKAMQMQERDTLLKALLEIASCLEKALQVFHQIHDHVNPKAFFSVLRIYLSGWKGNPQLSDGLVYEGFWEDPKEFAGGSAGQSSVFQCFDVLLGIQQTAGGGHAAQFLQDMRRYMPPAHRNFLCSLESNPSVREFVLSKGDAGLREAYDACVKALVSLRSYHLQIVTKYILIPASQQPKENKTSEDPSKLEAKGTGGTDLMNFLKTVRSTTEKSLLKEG

| Compound | EC50 |
| --- | --- |
| OCc1nc2nccc(/C(=N/O)Nc3ccc(F)c(Cl)c3)c2[nH]1 [Example 177, N-(3-Chloro-4-fluorophenyl)-N′-hydroxy-2-(hydroxymethyl)-1H-imidazo[4,5-b]pyridine-7-carboximidamide] | 1670 nM |
| CNCc1nc2nccc(/C(=N/O)Nc3ccc(F)c(Cl)c3)c2[nH]1 [Example 178, N-(3-Chloro-4-fluorophenyl)-N′-hydroxy-2-((methylamino)methyl)-1H-imidazo[4,5-b]pyridine-7-carboximidamide] | 1480 nM |
| NCc1nc2nccc(/C(=N/O)Nc3ccc(F)c(Cl)c3)c2[nH]1 [Example 179, 2-(Aminomethyl)-N-(3-chloro-4-fluorophenyl)-N′-hydroxy-1H-imidazo[4,5-b]pyridine-7-carboximidamide] | 7660 nM |
| O=S(=O)(NCc1nc2nccc(/C(=N/O)Nc3ccc(F)c(Cl)c3)c2[nH]1)c1ccccc1 [Example 180, N-(3-Chloro-4-fluorophenyl)-N′-hydroxy-2-(phenylsulfonamidomethyl)-1H-imidazo[4,5-b]pyridine-7-carboximidamide] | 1410 nM |
| CS(=O)(=O)NCc1nc2nccc(/C(=N/O)Nc3ccc(F)c(Cl)c3)c2[nH]1 [Example 181, N-(3-Chloro-4-fluorophenyl)-N′-hydroxy-2-(methylsulfonamidomethyl)-1H-imidazo[4,5-b]pyridine-7-carboximidamide] | 8970 nM |
| O/N=C(\Nc1ccc(F)c(Cl)c1)c1ccnc2nc(CNc3ncccn3)[nH]c12 [Example 182, N-(3-Chloro-4-fluorophenyl)-N′-hydroxy-2-((pyrimidin-2-ylamino)methyl)-1H-imidazo[4,5-b]pyridine-7-carboximidamide] | 6400 nM |
| OCCc1nc2nccc(/C(=N/O)Nc3ccc(F)c(Cl)c3)c2[nH]1 [Example 183, N-(3-Chloro-4-fluorophenyl)-N′-hydroxy-2-(2-hydroxyethyl)-1H-imidazo[4,5-b]pyridine-7-carboximidamide] | 2400 nM |
| CN(C)CCc1nc2nccc(/C(=N/O)Nc3ccc(F)c(Cl)c3)c2[nH]1 [Example 184, N-(3-Chloro-4-fluorophenyl)-2-(2-(dimethylamino)ethyl)-N′-hydroxy-1H-imidazo[4,5-b]pyridine-7-carboximidamide] | 593 nM |
| CCN(CC)CCc1nc2nccc(/C(=N/O)Nc3ccc(F)c(Cl)c3)c2[nH]1 [Example 185, N-(3-Chloro-4-fluorophenyl)-2-(2-(diethylamino)ethyl)-N′-hydroxy-1H-imidazo[4,5-b]pyridine-7-carboximidamide] | 531 nM |
| CN(CCc1nc2nccc(/C(=N/O)Nc3ccc(F)c(Cl)c3)c2[nH]1)CC1CC1 [Example 186, N-(3-Chloro-4-fluorophenyl)-2-(2-((cyclopropylmethyl)(methyl)amino)ethyl)-N′-hydroxy-1H-imidazo[4,5-b]pyridine-7-carboximidamide] | 565 nM |
| CN(CCc1nc2nccc(/C(=N/O)Nc3ccc(F)c(Cl)c3)c2[nH]1)CC(F)F [Example 187, N-(3-Chloro-4-fluorophenyl)-2-(2-((2,2-difluoroethyl)(methyl)amino)ethyl)-N′-hydroxy-1H-imidazo[4,5-b]pyridine-7-carboximidamide] | 3400 nM |
| CNCCc1nc2nccc(/C(=N/O)Nc3ccc(F)c(Cl)c3)c2[nH]1 [Example 188, N-(3-Chloro-4-fluorophenyl)-N′-hydroxy-2-(2-(methylamino)ethyl)-1H-imidazo[4,5-b]pyridine-7-carboximidamide] | 1510 nM |
| NCCc1nc2nccc(/C(=N/O)Nc3ccc(F)c(Cl)c3)c2[nH]1 [Example 189, 2-(2-Aminoethyl)-N-(3-chloro-4-fluorophenyl)-N′-hydroxy-1H-imidazo[4,5-b]pyridine-7-carboximidamide] | 1780 nM |
| COCCNCCc1nc2nccc(/C(=N/O)Nc3ccc(F)c(Cl)c3)c2[nH]1 [Example 190, N-(3-Chloro-4-fluorophenyl)-N′-hydroxy-2-(2-((2-methoxyethyl)amino)ethyl)-1H-imidazo[4,5-b]pyridine-7-carboximidamide] | 1510 nM |
| O/N=C(\Nc1ccc(F)c(Cl)c1)c1ccnc2nc(CCN3CCOCC3)[nH]c12 [Example 191, N-(3-Chloro-4-fluorophenyl)-N′-hydroxy-2-(2-morpholinoethyl)-1H-imidazo[4,5-b]pyridine-7-carboximidamide] | 2820 nM |
| O/N=C(\Nc1ccc(F)c(Cl)c1)c1ccnc2nc(CCN3CCCCC3)[nH]c12 [Example 192, N-(3-Chloro-4-fluorophenyl)-N′-hydroxy-2-(2-(piperidin-1-yl)ethyl)-1H-imidazo[4,5-b]pyridine-7-carboximidamide] | 241 nM |
| O/N=C(\Nc1ccc(F)c(Cl)c1)c1ccnc2nc(CCN3CCCC3)[nH]c12 [Example 193, N-(3-Chloro-4-fluorophenyl)-N′-hydroxy-2-(2-(pyrrolidin-1-yl)ethyl)-1H-imidazo[4,5-b]pyridine-7-carboximidamide] | 358 nM |

| Compound | EC50 |
| --- | --- |
| COCCN(C)CCc1nc2nccc(/C(=N/O)Nc3ccc(F)c(Cl)c3)c2[nH]1 [Example 194, N-(3-Chloro-4-fluorophenyl)-N′-hydroxy-2-(2-((2-methoxyethyl)(methyl)amino)ethyl)-1H-imidazo[4,5-b]pyridine-7-carboximidamide] | 504 nM |
| CN(C)CC(O)c1nc2nccc(/C(=N/O)Nc3ccc(F)c(Cl)c3)c2[nH]1 (stereo not drawn) [Example 195, N-(3-Chloro-4-fluorophenyl)-2-(2-(dimethylamino)-1-hydroxyethyl)-N′-hydroxy-1H-imidazo[4,5-b]pyridine-7-carboximidamide] | 1160 nM |
| CC(C)CNCc1nc2nccc(/C(=N/O)Nc3ccc(F)c(Cl)c3)c2[nH]1 [Example 196, N-(3-Chloro-4-fluorophenyl)-N′-hydroxy-2-((isobutylamino)methyl)-1H-imidazo[4,5-b]pyridine-7-carboximidamide] | 1330 nM |
| Cn1cnc2c(/C(=N/O)Nc3ccc(F)c(Cl)c3)ccnc21 [Example 197, N-(3-Chloro-4-fluorophenyl)-N′-hydroxy-3-methyl-3H-imidazo[4,5-b]pyridine-7-carboximidamide] | 5460 nM |
| CN(C)CCCc1nc2c(F)c(F)cc(/C(=N/O)Nc3ccc(F)c(Cl)c3)c2[nH]1 [Example 199, N-(3-Chloro-4-fluorophenyl)-2-[3-(dimethylamino)propyl]-6,7-difluoro-N′-hydroxy-3H-benzimidazole-4-carboximidamide] | 4490 nM |
| O/N=C(\Nc1ccc(F)c(Cl)c1)c1ccc(F)c2nc(NCCCN3CCOCC3)[nH]c12 [Example 200, N-(3-Chloro-4-fluorophenyl)-7-fluoro-N′-hydroxy-2-(3-morpholin-4-ylpropylamino)-3H-benzimidazole-4-carboximidamide] | 564 nM |
| CN(C)CCNc1nc2c(F)ccc(/C(=N/O)Nc3ccc(F)c(Cl)c3)c2[nH]1 [Example 201, N-(3-Chloro-4-fluorophenyl)-2-[2-(dimethylamino)ethylamino]-7-fluoro-N′-hydroxy-3H-benzimidazole-4-carboximidamide] | 428 nM |
| CN1CCCCC1CNc1nc2nccc(/C(=N/O)Nc3ccc(F)c(Cl)c3)c2[nH]1 (stereo not drawn) [Example 202, N-(3-Chloro-4-fluorophenyl)-N′-hydroxy-2-[(1-methylpiperidin-2-yl)methylamino]-1H-imidazo[4,5-b]pyridine-7-carboximidamide] | 2090 nM |
| CN1CCC(Nc2nc3nccc(/C(=N/O)Nc4ccc(F)c(Cl)c4)c3[nH]2)C1 (stereo not drawn) [Example 203, N-(3-Chloro-4-fluorophenyl)-N′-hydroxy-2-[(1-methylpyrrolidin-3-yl)amino]-1H-imidazo[4,5-b]pyridine-7-carboximidamide] | 1340 nM |
| CCNCCc1nc2nccc(/C(=N/O)Nc3ccc(F)c(Cl)c3)c2[nH]1 [Example 204, N-(3-chloro-4-fluorophenyl)-2-(2-(ethylamino)ethyl)-N′-hydroxy-3H-imidazo[4,5-b]pyridine-7-carboximidamide] | 2190 nM |
| CC(C)NCCc1nc2nccc(/C(=N/O)Nc3ccc(F)c(Cl)c3)c2[nH]1 [Example 205, N-(3-chloro-4-fluorophenyl)-N′-hydroxy-2-(2-(isopropylamino)ethyl)-3H-imidazo[4,5-b]pyridine-7-carboximidamide] | 2820 nM |
| CC(C)CNCCc1nc2nccc(/C(=N/O)Nc3ccc(F)c(Cl)c3)c2[nH]1 [Example 206, N-(3-chloro-4-fluorophenyl)-N′-hydroxy-2-(2-(isobutylamino)ethyl)-3H-imidazo[4,5-b]pyridine-7-carboximidamide] | 2300 nM |
| O/N=C(\Nc1ccc(F)c(Cl)c1)c1ccnc2nc(CCNC3CC3)[nH]c12 [Example 207, N-(3-chloro-4-fluorophenyl)-2-(2-(cyclopropylamino)ethyl)-N′-hydroxy-3H-imidazo[4,5-b]pyridine-7-carboximidamide] | 1260 nM |
| NC1=NCCN1CCc1nc2nccc(/C(=N/O)Nc3ccc(F)c(Cl)c3)c2[nH]1 [Example 209, 2-(2-(2-amino-4,5-dihydro-1H-imidazol-1-yl)ethyl)-N-(3-chloro-4-fluorophenyl)-N′-hydroxy-1H-imidazo[4,5-b]pyridine-7-carboximidamide] | 5000 nM |
| CS(=O)(=O)NCCc1nc2c(F)c(F)cc(/C(=N/O)Nc3ccc(F)c(Cl)c3)c2[nH]1 [Example 210, N-(3-chloro-4-fluorophenyl)-4,5-difluoro-N′-hydroxy-2-(2-(methylsulfonamido)ethyl)-1H-benzo[d]imidazole-7-carboximidamide] | > 10000 nM |
| NCCc1nc2c(F)c(F)cc(/C(=N/O)Nc3ccc(F)c(Cl)c3)c2[nH]1 [Example 211, 2-(2-aminoethyl)-N-(3-chloro-4-fluorophenyl)-4,5-difluoro-N′-hydroxy-1H-benzo[d]imidazole-7-carboximidamide] | > 10000 nM |
